Earlier results as cited in patent US7816404B2, “Methods for the preparation and use of ferric pyrophosphate citrate chelate compositions” (Rockwell Medical Technologies, Inc., priority 2007, dated 2010).

Conditions: stability constant with ferric ion

Row | SMILES | log Kstab for ferric ion
1 | O=C(O)CC(O)(CC(=O)O)C(=O)O [citrate] | 12
2 | O=P(O)(O)OP(=O)(O)O [pyrophosphate] | 22.2
